System: NOMO1
Test: cell viability relative to DMSO control; higher = less cytotoxic
Settings: 48 h
How it was run: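 Cells were incubated for 48 h at 37°C before CellTiter-Glo One luminescence was read. The cells were NOMO1 or SEM (500 cells/well) or P12-Ichikawa (1000 cells/well) leukemia cells, adapted for at least four passages in each medium and seeded in 1536-well plates (5 μl). Dosing used library compounds in DMSO applied by pin over 11 threefold points, 47 μM to 0.79 nM. Viability is the per-plate percentage of DMSO wells, with cell-free wells as background.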

[1] = HPLM + 10% dialyzed FBS, 0.000781 µM
[2] = HPLM + 10% dialyzed FBS, 0.00234 µM
[3] = HPLM + 10% dialyzed FBS, 0.00702 µM
[4] = HPLM + 10% dialyzed FBS, 0.0211 µM
[5] = HPLM + 10% dialyzed FBS, 0.0632 µM
[6] = HPLM + 10% dialyzed FBS, 0.19 µM
[7] = HPLM + 10% dialyzed FBS, 0.569 µM
[8] = HPLM + 10% dialyzed FBS, 1.71 µM
[9] = HPLM + 10% dialyzed FBS, 5.12 µM
[10] = HPLM + 10% dialyzed FBS, 15.4 µM
[11] = HPLM + 10% dialyzed FBS, 46.1 µM
[12] = RPMI 5 mM glucose + 10% FBS, 0.000781 µM
[13] = RPMI 5 mM glucose + 10% FBS, 0.00234 µM
[14] = RPMI 5 mM glucose + 10% FBS, 0.00702 µM
[15] = RPMI 5 mM glucose + 10% FBS, 0.0211 µM
[16] = RPMI 5 mM glucose + 10% FBS, 0.0632 µM
[17] = RPMI 5 mM glucose + 10% FBS, 0.19 µM
[18] = RPMI 5 mM glucose + 10% FBS, 0.569 µM
[19] = RPMI 5 mM glucose + 10% FBS, 1.71 µM
[20] = RPMI 5 mM glucose + 10% FBS, 5.12 µM
[21] = RPMI 5 mM glucose + 10% FBS, 15.4 µM
[22] = RPMI 5 mM glucose + 10% FBS, 46.1 µM
[23] = RPMI 5 mM glucose + 10% dialyzed FBS, 0.000781 µM
[24] = RPMI 5 mM glucose + 10% dialyzed FBS, 0.00234 µM
[25] = RPMI 5 mM glucose + 10% dialyzed FBS, 0.00702 µM
[26] = RPMI 5 mM glucose + 10% dialyzed FBS, 0.0211 µM
[27] = RPMI 5 mM glucose + 10% dialyzed FBS, 0.0632 µM
[28] = RPMI 5 mM glucose + 10% dialyzed FBS, 0.19 µM
[29] = RPMI 5 mM glucose + 10% dialyzed FBS, 0.569 µM
[30] = RPMI 5 mM glucose + 10% dialyzed FBS, 1.71 µM
[31] = RPMI 5 mM glucose + 10% dialyzed FBS, 5.12 µM
[32] = RPMI 5 mM glucose + 10% dialyzed FBS, 15.4 µM
[33] = RPMI 5 mM glucose + 10% dialyzed FBS, 46.1 µM

Compound	cell viability [1] [%]	cell viability [2] [%]	cell viability [3] [%]	cell viability [4] [%]	cell viability [5] [%]	cell viability [6] [%]	cell viability [7] [%]	cell viability [8] [%]	cell viability [9] [%]	cell viability [10] [%]	cell viability [11] [%]	cell viability [12] [%]	cell viability [13] [%]	cell viability [14] [%]	cell viability [15] [%]	cell viability [16] [%]	cell viability [17] [%]	cell viability [18] [%]	cell viability [19] [%]	cell viability [20] [%]	cell viability [21] [%]	cell viability [22] [%]	cell viability [23] [%]	cell viability [24] [%]	cell viability [25] [%]	cell viability [26] [%]	cell viability [27] [%]	cell viability [28] [%]	cell viability [29] [%]	cell viability [30] [%]	cell viability [31] [%]	cell viability [32] [%]	cell viability [33] [%]
CN1\C(=C(\O)C2=CC=CC=C2[S+]1([O-])=O)C(=O)NC3=NC=C(C)S3	101	111	101	114	99.5	116	113	116	102	86.1	116	81.1	91.5	88.4	91.7	98.7	96.8	101	88.3	96.7	99.3	95.9	84.2	86.3	85.6	81.9	81.5	93.6	79.6	76	91.9	92.7	91.8
Cc1cn(-c2cc(NC(=O)c3ccc(C)c(Nc4nccc(-c5cccnc5)n4)c3)cc(C(F)(F)F)c2)cn1	100	122	123	135	130	117	103	88.8	95.3	95.2	114	99.7	111	115	127	113	131	117	66.5	61.3	74.2	68.4	102	109	107	106	114	114	111	86.8	67.2	66.3	62.9
CC(C)C1=C(O)C=C(O)C(=C1)C/2=N/NC(=O)N2C3=CC4=C(C=C3)[N](C)C=C4	134	116	123	130	118	29.5	23.4	23.2	20.7	21	15.8	106	101	107	112	105	19.6	16.3	15.3	16.8	16.3	13.3	120	117	130	118	95.9	32.6	22.3	19.6	20	16.9	17.6
CCC(C)(Oc1ccc(C2(c3ccc(OC(C)(CC)C(=O)O)cc3)CCCCC2)cc1)C(=O)O (stereo not drawn)	89.3	107	89.4	108	118	101	93.8	124	102	85.1	99.4	104	101	95.5	99.2	102	89.4	97.6	97.7	92.8	84	84.3	100	94.4	111	96.1	99.8	94	107	103	87	93.9	101
CN[C@@H]1[C@H](O)[C@H](NC)[C@H]2O[C@@]3(O)C(=O)C[C@@H](C)O[C@H]3O[C@@H]2[C@H]1O	123	135	117	113	124	127	128	121	103	87.4	42.6	–	–	–	–	–	–	–	–	–	–	–	110	115	115	119	122	121	113	114	119	103	91.4
COc1ccc(-c2ccc3c(N4CCOC[C@@H]4C)nc(N4CCOC[C@@H]4C)nc3n2)cc1CO	93.6	76.5	93.1	82.1	74.5	64.6	58.7	55.1	48	9.86	3.58	103	75.7	94	95.6	90.4	84.5	75.1	72.4	63.4	41.7	4.25	102	63.9	98.6	86	85.9	69	64	70.5	57.4	52.4	5.83
C[C@]1(c2nc3c(C(N)=O)cccc3[nH]2)CCCN1	70.8	69.6	84	82.2	80.8	88.9	84.2	74.6	67.1	93	31.4	65.2	80.4	72.5	79.5	76.3	76.3	85.6	72	68.9	81.3	23	62.8	77	76.8	82.3	87.5	93.7	89.6	90.6	73.1	77.4	26.1
CCn1c(-c2nonc2N)nc2cnc(Oc3cccc(NC(=O)c4ccc(OCCN5CCOCC5)cc4)c3)cc21	90.6	123	105	117	117	104	115	110	94.6	95.3	83.2	92.8	98.6	111	109	110	95.8	87.4	93.8	82.4	74.1	64	88.9	107	110	102	115	103	89.9	87.6	79.1	71.2	74.4
